Test results: paper PMC9006931, “Altered Response Pattern following AZD5582 Treatment of SIV-Infected, ART-Suppressed Rhesus Macaque Infants” (Journal of Virology, 2022)

Key:
[1] = Tolerability of repeated AZD5582 infusions in infant RMs; assay type: in vivo; conditions: 0.1 mg/kg i.v., 10 infusions
Protocol: The IAPi AZD5582 was reconstituted to 0.4 mg/mL in 10% Captisol within 1 week of administration as previously described ([17]). Monkeys assigned to the experimental intervention group received 10 administrations of 0.1 mg/kg AZD5582 by intravenous (i.v.) infusion with an inline filter for 30 minutes every week for 10 weeks.
EDTA-anticoagulated blood samples were collected regularly and used for a complete blood count, routine chemical analysis, and immunostaining, with plasma separated by centrifugation within 1 h of phlebotomy. PBMCs were prepared by density gradient centrifugation. Lymph node biopsy specimens were collected at indicated time points (Fig. 2A). Lymph nodes were ground using a 70-μm cell strainer. Cell suspensions were washed and immediately used for immunostaining or cryopreserved at −80°C until use.

memory CD8+ T cells = assay: Ki67 expression by whole blood flow cytometry, memory CD8+ T cells; assay type: in vivo, rhesus macaque; conditions: for Ki67 expression in memory CD8+ T cells: AZD5582 treated infant RMs
Protocol: The ncNF-κB pathway plays an important role in regulating T cell differentiation without causing broad systemic inflammation ([22]). We have previously observed a stimulatory effect on peripheral T cells following AZD5582 treatment specifically measurable through increased intracellular Ki67 expression ([17]). To further assess the effect of AZD5582 on infant RMs, flow cytometry was performed longitudinally on whole blood on the day of doses 1, 3, 6, and 9 and both 48 to 72h and 7 days after each of these doses. These time points were selected to allow longitudinal evaluation while remaining within blood volume constraints.
Multicolor flow cytometric analysis was performed on whole blood (WB) or cell suspensions using predetermined optimal concentrations of the following fluorescently conjugated monoclonal antibodies (MAbs). For WB T cell analysis the following MAbs were used: CD3-allophycocyanin (APC)-Cy7 (clone SP34-2), CD95-phycoerythrin (PE)-Cy5 (clone DX2), Ki67-AF700 (clone B56), HLA-DR-peridinin chlorophyll protein (PerCP)-Cy5.5 (clone G46-6), CCR7-fluorescein isothiocyanate (FITC) (clone 150503), CCR5-APC (clone 3A9), CD62L (clone SK11), and CD45-RA-PE-Cy7 (clone L45) from BD Biosciences; CD8-BV711 (clone RPA-T8), CD4-BV650 (clone OKT4), and PD-1-BV421 (clone EH12.2H7) from BioLegend; and CD28-ECD (clone CD28-2) from Beckman-Coulter. Flow cytometric acquisition and analysis of samples were performed on at least 100,000 events on an AURORA flow cytometer driven by the SpectroFlo software package (Cytek). Analyses of the acquired data were performed using FlowJo version 10.0.4 software (TreeStar).

[2] = system: NF-κB associated genes in CD4+ T cells; assay: RNA-Seq of peripheral CD4+ T cells pre- and post-AZD5582; assay type: in vivo, rhesus macaque
Protocol: Treatment with AZD5582 in SIV-infected, ART-suppressed adult RMs upregulates key genes associated with signaling through the ncNF-kB pathway, rather than the canonical NF-κB (cNF-kB) pathway in CD4^+ T cells ([17]). Here, we performed RNA-Seq in total CD4^+ T cells isolated from the peripheral blood of AZD5582-treated infant macaques at baseline (pre-dose 1) and the end of the treatment period (post-dose 10).
RNA-sequencing (RNA-seq) analysis was conducted at the Yerkes Nonhuman Primate Genomics Core Laboratory (http://www.yerkes.emory.edu/nhp_genomics_core/). RNA was purified from 50,000 peripheral blood-derived CD4^+ T cells purified by negative selection and lysed in 350 μL of RLT buffer at −80°C, using Qiagen Micro RNEasy columns, and RNA quality was assessed using an Agilent Bioanalyzer. Following this, 2 ng of total RNA was used as input for mRNA amplification using 5′ template switch PCR with the Clontech SMART-seq v4 Ultra Low Input RNA kit according to the manufacturer’s instructions. Amplified mRNA was fragmented and appended with dual-index bar codes using Illumina NexteraXT DNA library preparation kits. Libraries were validated by capillary electrophoresis on an Agilent 4200 TapeStation, pooled and sequenced on an Illumina HiSeq 3000 using 100-bp single reads at an average depth of 25 million reads. Alignment was performed using STAR version 2.7.3a ([36]) and transcripts were annotated using a composite reference of rhesus macaque (Mmul10 Ensembl release 100).
Statistical analyses were performed using GraphPad Prism Software (v.7 or v.8). P ≤ 0.05 was considered statistically significant. To compare differences in pre-ART viral loads between experimental groups in Fig. 2D and SIV DNA levels in Fig. 3C a two-sided Mann-Whitney test was used. To test the statistical significance observed in Ki67 expression on memory CD4^+ and CD8^+ T cells in Fig. 3B, BIRC3, NFKB2 gene expression in Fig. 6A and B, and SIV RNA expression in Fig. 6C and D. A Wilcoxon matched-pairs signed-rank test was used. For RNA-seq analysis in Fig. 5, RNA-seq data were mapped to the NCBI Mmul10 assembly of the Indian rhesus macaque genome, and alignment was performed with STAR (v.2.7.3a) using Ensemble release 100 annotations as a transcript annotation and splice junction reference. Transcript abundance estimates were calculated internal to the STAR aligner using the algorithm of htseq-count ([37]). DESeq2 ([38]) was used for normalization and differential expression analysis. Gene set enrichment analysis ([39]) (GSEA), performed with the GSEA desktop module (available at https://www.broadinstitute.org/gsea/) and the Molecular Signatures Database (MSigDB), was used to determine pathway/gene set enrichment. Heat maps, volcano plots, and principal-component analysis plots were generated with the R (v 3.6.0) package ggplot2.

[3] = infant RMs, CD4+ T cells, post-dose 10 vs pre-dose 1

Compound: CN[C@@H](C)C(=O)N[C@H](C(=O)N1CCC[C@H]1C(=O)N[C@H]1c2ccccc2C[C@H]1OCC#CC#CCO[C@@H]1Cc2ccccc2[C@@H]1NC(=O)[C@@H]1CCCN1C(=O)[C@@H](NC(=O)[C@H](C)NC)C1CCCCC1)C1CCCCC1 [AZD5582]
- Tolerability / clinical adverse events [1]: well-tolerated and safe
- Mean Ki67 expression in peripheral memory CD8+ T cells (memory CD8+ T cells; 3-days post-AZD5582 (doses 1, 3, 6, 9), P = 0.03): 26.5%
- Ki67 expression in memory CD8+ T cells (memory CD8+ T cells; 7 days following dose 1): 46.7%
- Ki67 expression in memory CD8+ T cells (memory CD8+ T cells; before the increase seen after dose 1): 5.1%
- Mean Ki67 expression in peripheral memory CD8+ T cells (memory CD8+ T cells; baseline (immediately before doses 1, 3, 6, 9)): 18.2%
- Average increase of Ki67 expression in memory CD8+ T cells after dose 1 (memory CD8+ T cells; relative to three baseline measurements, treated infant RMs): 23.3%
- BIRC3 and BIRC5 expression in CD4+ T cells ([2]; AZD5582 treated infant and adult RMs): most significantly upregulated
- Genes downregulated following AZD5582 treatment [2, 3]: 176 genes
- Genes upregulated following AZD5582 treatment [2, 3]: 855 genes
- Genes differentially expressed following AZD5582 treatment ([2]; infant RMs, CD4+ T cells, post-dose 10 vs pre-dose 1, FDR 5%, linear fold change 50%): 1,031 genes
- Expression of RELB, NFKB2 and NFKBIA in CD4+ T cells ([2]; treated infant RMs): did not observe increased expression
